Test results taken from patent US20030114375A1, “Method for treating cystic fibrosis” (The Government of the USA, Dept of Health and Human …, priority 1994, published 2003).
“And” between values parts separate entries of the source, which are not always exact repeats. Equal entries are not always repeated. Where two headings read alike, the source gives them in different places.

Experiments:
CFPAC cells [1] = settings: U.S. Pat. No. 5,366,977 / Eidelman et al.; cited from earlier work
A1-adenosine receptor = target: T1, A1-adenosine receptor (Rattus norvegicus, UniProt P25099); assay: Inhibition of [3H]N6-phenylisopropyladenosine binding to A1 receptors; settings: for Ki: rat cerebral cortex membranes, 1 nM [3H]PIA, read-out: Ki, μM(A1)
T1 construct: Rat cerebral cortical membranes and striatal membranes were prepared; from tissue; host or cells: rat cerebral cortex membranes
T1 sequence (P25099 1-326): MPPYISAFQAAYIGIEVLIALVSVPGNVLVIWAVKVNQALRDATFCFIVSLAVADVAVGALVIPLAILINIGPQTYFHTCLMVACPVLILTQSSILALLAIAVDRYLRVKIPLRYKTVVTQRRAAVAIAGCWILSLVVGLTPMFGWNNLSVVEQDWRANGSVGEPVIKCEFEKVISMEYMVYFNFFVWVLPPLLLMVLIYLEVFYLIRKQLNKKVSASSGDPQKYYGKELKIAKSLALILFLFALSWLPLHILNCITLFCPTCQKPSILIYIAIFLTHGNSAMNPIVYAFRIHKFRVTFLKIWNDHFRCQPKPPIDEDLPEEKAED
Protocol: (§1) Solid samples of the adenosine derivatives were dissolved in dimethyl sulfoxide (DMSO) and stored in the art at. −20° C. The stock solutions were diluted with DMSO to a concentration of ≦0.1 mM prior to addition to the aqueous medium. The final concentration of DMSO in the assay medium was generally 2%.
Inhibition of binding of 1 nM [^3H]N^6-phenylisopropyladenosine (Dupont NEN, Boston, Mass.) to A1 receptors in rat cerebral cortex membranes was measured as described in Schwabe et al., Naunyn-Schmiedeberg's Arch. […] Membranes (^˜100 μg protein per tube) were incubated for 1.5 hours at 37° C. in a total volume of 0.5 ml of 50 mM tris hydrochloride at pH 7.4. Test drugs were dissolved in DMSO and added in 10 μl aliquots, resulting in a final DMSO concentration of 2%. Bound and free radioligand were separated by addition of 3 ml of a buffer containing 50 mM tris hydrochloride, at pH 7.4 at 5° C., followed by vacuum filtration using a Brandel Cell Harvester (Brandel, Gaithersburg, Md.) and a Whatman GF/B glass fiber filter with additional washes totaling 9 ml of buffer. Non-specific binding was determined with 10 μM 2-chloroadenosine.
(§2) At least six different concentrations spanning three orders of magnitude, adjusted appropriately for the IC50 of each compound, were used.

CFPAC cells [2] = assay: [36Cl]- efflux from CFPAC cells
[3] = target: T2, CFTR polypeptide Iα [SEQ ID NO:1] (Homo sapiens, UniProt P13569); assay: 3H-CPX binding to Iα polypeptide (dot blot filter binding, displacement)
T2 construct: made in house; host or cells: chemical solid-phase synthesis (Yale University)
T2 sequence (P13569 with tags, fused parts or gaps): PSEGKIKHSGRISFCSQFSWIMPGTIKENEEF
Protocol: CPX was used as a representative compound known to activate chloride ion efflux from ΔF508 mutant cells. Stock solutions of CPX were prepared in DMSO in the millimolar concentration range. […] For displacement studies, unlabeled CPX, or other xanthine antagonists and nucleotides, were added to the incubation mixture before the radioactive probe. The mixture was then filtered through a nitrocellulose (NC) membrane (Schleicher & Schuell) by using a standard dot blot apparatus. […] The dot blots were then washed five times with 200 μl TRIS buffer-NaCl solutions (50 mM TRIS pH=7.0, 150 mM NaCl), radioactive spots were cut out, and the total was radioactivity determined by liquid scintillation counting.

A2a-adenosine receptor = target: T3, A2a-adenosine receptor (Rattus norvegicus, UniProt P30543); assay: Inhibition of [3H]CGS 21680 binding to A2a receptors; settings: rat striatal membranes, 5 nM [3H]CGS 21680; read-out: Ki, μM(A2)
T3 construct: Rat cerebral cortical membranes and striatal membranes were prepared; from tissue; host or cells: rat striatal membranes
T3 sequence (P30543 whole entry): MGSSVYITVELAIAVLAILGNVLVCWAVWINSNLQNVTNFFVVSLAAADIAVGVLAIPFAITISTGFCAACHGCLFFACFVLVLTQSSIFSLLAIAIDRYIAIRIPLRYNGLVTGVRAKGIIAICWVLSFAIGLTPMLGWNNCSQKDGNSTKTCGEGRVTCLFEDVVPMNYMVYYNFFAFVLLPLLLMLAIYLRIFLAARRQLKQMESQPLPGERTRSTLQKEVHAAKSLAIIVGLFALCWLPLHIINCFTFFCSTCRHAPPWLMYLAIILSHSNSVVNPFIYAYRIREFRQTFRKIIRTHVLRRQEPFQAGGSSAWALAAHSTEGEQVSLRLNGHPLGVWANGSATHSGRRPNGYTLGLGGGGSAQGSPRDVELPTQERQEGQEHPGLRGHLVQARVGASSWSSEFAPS
Protocol: as §1
Membranes (^˜80 μg protein per tube) were incubated for one hour at 25° C. in a total volume of 0.5 ml of a buffer solution consisting of […] tris hydrochloride and 10 mM MgCl2 at pH 7.4. Test drugs were dissolved in DMSO and added in 10 μl aliquots, resulting in a final DMSO concentration of 2%. Non-specific binding was defined using 20 μM 2-chloroadenosine. Filtration was carried out using a Brandel Cell Harvester, as above, using the tris.HCl/MgCl2 buffer recited hereinabove as the washing buffer.
as §2

Iα polypeptide = target: T4, Iα polypeptide (Homo sapiens, UniProt P13569); assay: Phosphatidylserine liposome aggregation driven by Iα polypeptide; assay type: biochemical; settings: 0.5 μg/ml (0.18 μM) Iα; for Effect on PS liposome aggregation driven by Iα: 2-thio-CPX up to 1 μM, IBMX up to 15 μM
T4 construct: made in house; host or cells: chemical solid-phase synthesis (Yale University)
T4 sequence (P13569 with tags, fused parts or gaps): as the sequence (P13569 with tags, fused parts or gaps) above
Protocol: Liposome aggregation assay: Phosphatidylserine (“PS”, obtained from Avanti) was dissolved in chloroform, and small unilamellar liposomes were prepared by the extrusion process known in the art. A Lipex machine was used to extrude the PS in a buffer consisting of 10 mM Na-HEPES, pH 7.2 and 1 mM EDTA. The liposomes were diluted to a final optical density at 540 nm of 0.01 and incubated with different concentrations of the different polypeptides and/or chloride ion efflux-activating compounds.

CFPAC cells [4] = settings: read from the graphs

Compound	Activation of chloride efflux from CF cells (words, prior disclosure) (CFPAC cells [1])	Ki (A1-adenosine receptor)	Conc. max. (nM): concentration at maximum impact upon chloride efflux (CFPAC cells [2])	Displacement of 3H-CPX binding to Iα [3]	Ki (A2a-adenosine receptor)	Effect on PS liposome aggregation driven by Iα (Iα polypeptide)	thresh (nM): minimum concentration required to detect an effect upon chloride efflux (CFPAC cells [2])	also measured
Cn1c(=O)c2[nH]c(C3CCCC3)nc2n(C)c1=O [Compound 4, 1,3-dimethyl-8-cyclopentylxanthine, reference compound]	ineffective	0.011 µM	>>10^4 nM					Affinity for A1 receptor (A1-adenosine receptor): highest A1 affinity
CCCn1c(=O)c2[nH]c(C3CCCC3)nc2n(CCC)c1=S [Compound 8, 2-thio-8-cylcopentyl-1,3-dipropylxanthine, reference compound]	ineffective	0.00066 µM	>>10^4 nM	not effected	0.31 µM	entirely inactive		
CCCn1c(=O)c2[nH]c(C3CCCC3)nc2n(CCC)c1=O [Compound 5, 1,3-dipropyl-8-cyclopentylxanthine, reference compound]	promotes chloride efflux		30 nM	Displacement of binding was effected			1 nM	Kd ([3]; Scatchard plot, n=4, 100 nM Iα): 0.069 ± 0.027 µM; Affinity for A1 receptor (A1-adenosine receptor): high affinity; Efflux rate as compared to control (FIGS. 9-12) (CFPAC cells [2]; read from the graphs): 200%; Concentration at maximum rate and extent of Iα-driven liposome aggregation (Iα polypeptide): 100 nM
CCCn1c(=O)c2[nH]c(C34CC5CC(CC3C5)C4)nc2n(CCC)c1=O [Compound 12, 1,3-dipropyl-8-noradamantylxanthine, reference compound]	ineffective	0.0013 µM	10 nM		0.38 µM		1 nM	% control: chloride efflux at minimum detection relative to control (CFPAC cells [2]; at threshold concentration): 120% and 120 ± 5%
3-isobutylmethyl xanthine [Compound 3]				not effected	16 µM	entirely inactive		
Cn1c(=O)c2[nH]cnc2n(C)c1=O [Compound 1, theophylline, reference compound]			100 nM				1 nM	Efflux rate as compared to control (FIGS. 9-12) (CFPAC cells [4]): 200%
Nc1ncnc2c1ncn2[C@@H]1O[C@H](CO)[C@@H](O)[C@H]1O [Adenosine, adenosine]						modest but evident biphasic effect		
